# According to US20060247416A1, “HIV gp41 HR2-derived synthetic peptides, and their use in therapy to inhibit transmission of human immunodeficiency virus” (priority 2004, published 2006):
# What was measured:
# HIV-1LAI = settings: Lawless et al., 1996; cited from earlier work
# HIV-1 = settings: regimen of antiviral agents containing T20 versus same regimen without T20; cited from earlier work
# [1] = 10 mg/ml in PBS, about pH 7.3 to about pH 7.5, 37° C., after several hours
# Procedure: Each was individually tested for stability in aqueous solution by adding the peptide at a concentration of 10 mg/ml to phosphate-buffered saline (PBS), and by measuring (e.g., by HPLC) at different time points over a period of 1 week (168 hours) the amount of peptide remaining in solution at a range of about pH 7.3 to about pH 7.5 at 37° C.
substance,measurement,setting,value
enfuvirtide,EC50 against HIV-1LAI,HIV-1LAI,0.5 ng/mL
same,HIV-1 viral load,HIV-1,significantly reduces
same,circulating CD4+ cell population,HIV-1,significantly increases
same,stability in aqueous solution,[1],minimal to no peptide detected in solution
